Test results from publication PMC6752049 (Insect biochemistry and molecular biology, 2019).

How the values were obtained:
Test in all cases: two-electrode voltage clamp, Xenopus oocytes
Type in all cases: cell-based
AgamOR8 = molecular target: T1, AgamOR8 (Anopheles gambiae, UniProt Q7PUT5); conditions: 0.1 uM to 0.1 mM; -80 mV, pH 7.4; inward current (agonist)
T1 sequence (Q7PUT5 1-399): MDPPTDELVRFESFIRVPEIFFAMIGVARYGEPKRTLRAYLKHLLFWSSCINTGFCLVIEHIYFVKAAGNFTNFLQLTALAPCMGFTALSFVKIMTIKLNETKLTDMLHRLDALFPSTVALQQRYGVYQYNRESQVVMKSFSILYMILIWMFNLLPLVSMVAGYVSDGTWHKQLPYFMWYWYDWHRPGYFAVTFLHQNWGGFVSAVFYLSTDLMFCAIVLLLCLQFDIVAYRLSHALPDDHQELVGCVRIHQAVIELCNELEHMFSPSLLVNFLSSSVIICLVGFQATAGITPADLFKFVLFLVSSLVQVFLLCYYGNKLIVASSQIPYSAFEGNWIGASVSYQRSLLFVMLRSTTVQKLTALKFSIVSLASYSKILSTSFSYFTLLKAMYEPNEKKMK
T1 sequence (Q7QCC7 1-478 partner): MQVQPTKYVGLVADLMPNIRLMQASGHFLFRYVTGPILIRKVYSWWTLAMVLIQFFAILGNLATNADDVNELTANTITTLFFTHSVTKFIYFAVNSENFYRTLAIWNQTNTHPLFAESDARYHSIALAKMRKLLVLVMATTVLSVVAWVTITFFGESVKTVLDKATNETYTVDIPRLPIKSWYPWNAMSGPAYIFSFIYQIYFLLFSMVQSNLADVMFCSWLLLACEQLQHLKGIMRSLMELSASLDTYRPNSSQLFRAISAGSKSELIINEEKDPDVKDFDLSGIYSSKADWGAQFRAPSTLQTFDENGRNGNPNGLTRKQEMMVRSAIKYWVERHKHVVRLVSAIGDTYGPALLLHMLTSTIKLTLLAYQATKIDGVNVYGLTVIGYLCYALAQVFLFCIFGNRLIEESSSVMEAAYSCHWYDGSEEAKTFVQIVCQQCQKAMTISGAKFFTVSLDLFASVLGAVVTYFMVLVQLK

AgamOR10/AgamOrco = molecular target: T2, AgamOR10/AgamOrco (Anopheles gambiae, UniProt B5U0U7); conditions: 0.01-1 mM; -80 mV, pH 7.4; outward (inhibitory) current
T2 sequence (B5U0U7 1-375): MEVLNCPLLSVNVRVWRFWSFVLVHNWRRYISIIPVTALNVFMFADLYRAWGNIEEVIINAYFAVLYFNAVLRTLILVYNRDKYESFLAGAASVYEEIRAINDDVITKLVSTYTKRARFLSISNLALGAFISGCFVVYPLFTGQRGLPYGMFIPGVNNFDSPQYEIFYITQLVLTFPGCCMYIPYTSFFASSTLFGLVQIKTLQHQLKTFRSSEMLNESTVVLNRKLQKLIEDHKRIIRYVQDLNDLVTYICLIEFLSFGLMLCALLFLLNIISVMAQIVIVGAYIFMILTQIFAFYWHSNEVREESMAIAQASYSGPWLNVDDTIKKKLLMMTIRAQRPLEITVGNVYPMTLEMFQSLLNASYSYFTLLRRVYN
T2 sequence (Q7QCC7 1-478 partner): T1 sequence (Q7QCC7 1-478 partner)

AgamOR40 = molecular target: T3, AgamOR40 (Anopheles gambiae, UniProt Q7PR01); conditions: 0.01-1 mM; -80 mV, pH 7.4; inward current (agonist)
T3 sequence (Q7PR01 1-454): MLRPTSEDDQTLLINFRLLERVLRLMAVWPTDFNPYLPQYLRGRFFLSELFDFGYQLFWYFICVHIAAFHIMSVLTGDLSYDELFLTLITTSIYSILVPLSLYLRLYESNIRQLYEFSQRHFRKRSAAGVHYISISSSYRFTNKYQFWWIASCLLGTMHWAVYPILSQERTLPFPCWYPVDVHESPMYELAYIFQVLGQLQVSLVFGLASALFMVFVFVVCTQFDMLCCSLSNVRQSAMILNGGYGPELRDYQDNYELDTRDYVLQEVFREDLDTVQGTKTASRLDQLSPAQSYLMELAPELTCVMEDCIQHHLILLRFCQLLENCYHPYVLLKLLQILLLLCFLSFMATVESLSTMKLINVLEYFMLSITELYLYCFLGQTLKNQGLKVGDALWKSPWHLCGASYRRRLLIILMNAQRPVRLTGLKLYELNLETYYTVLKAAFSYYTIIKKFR
T3 sequence (Q7QCC7 1-478 partner): T1 sequence (Q7QCC7 1-478 partner)

Row | Compound | two-electrode voltage clamp, Xenopus oocytes (AgamOR40) | further results
1 | C=CC(O)CCCCC (stereo not shown) [1-octen-3-ol] |  | two-electrode voltage clamp, Xenopus oocytes (AgamOR8): generated robust, dose-dependent inward currents in response to 1-octen-3-ol
2 | CC/C=C\C[C@H]1C(=O)CC[C@@H]1CC(=O)OC [BDR-4, methyl jasmonate] |  | two-electrode voltage clamp, Xenopus oocytes (AgamOR10/AgamOrco): The strongest outward currents were obtained with BDR-4 (methyl jasmonate)
3 | CCN(CC)C(=O)c1cccc(C)c1 [DEET] | generated dose-dependent inward currents in response to DEET as well as to its best ligand, fenchone | 
4 | CC12CCC(C1)C(C)(C)C2=O (stereo not shown) [fenchone] | generated dose-dependent inward currents in response to DEET as well as to its best ligand, fenchone | 
